# Molecular target: T1, human Src kinase (Homo sapiens, UniProt P12931)
# T1 construct: full length recombinant human Src kinase (from Upstate Biotechnology, cat. no. 14-117); purchased Upstate Biotechnology 14-117; host or cells: baculovirus-infected cells ('baculo viral cells')
# Experiment: Src inhibition assay (radioactivity-based assay A or spectrophotometric assay B)
# Type: biochemical
# Description: The compounds of this invention can be evaluated as inhibitors of human Src kinase using either a radioactivity-based assay or spectrophotometric assay.
# The compounds can be assayed as inhibitors of full length recombinant human Src kinase (from Upstate Biotechnology, cat. no. 14-117) expressed and purified from baculo viral cells. Src kinase activity is monitored by following the incorporation of ^33P from ATP into the tyrosine of a random poly Glu-Tyr polymer substrate of composition, Glu:Tyr=4:1 (Sigma, cat. no. P-0275). The following are the final concentrations of the assay components: 0.05 M HEPES, pH 7.6, 10 mM MgCl2, 2 mM DTT, 0.25 mg/ml BSA, 10 μM ATP (1-2 μCi ^33P-ATP per reaction), 5 mg/ml poly Glu-Tyr, and 1-2 units of recombinant human Src kinase. In a typical assay, all the reaction components with the exception of ATP are pre-mixed and aliquoted into assay plate wells. […] The plates are sealed and the amount of radioactivity associated with the filters is quantified on a TopCount scintillation counter. The radioactivity incorporated is plotted as a function of the inhibitor concentration. […]
# In a typical assay, all the reaction components with the exception of ATP are pre-mixed and aliquoted into assay plate wells. […] The absorbance change at 340 nm with time, the rate of the reaction, is monitored on a molecular devices plate reader. […]
# T1 sequence (P12931 whole entry): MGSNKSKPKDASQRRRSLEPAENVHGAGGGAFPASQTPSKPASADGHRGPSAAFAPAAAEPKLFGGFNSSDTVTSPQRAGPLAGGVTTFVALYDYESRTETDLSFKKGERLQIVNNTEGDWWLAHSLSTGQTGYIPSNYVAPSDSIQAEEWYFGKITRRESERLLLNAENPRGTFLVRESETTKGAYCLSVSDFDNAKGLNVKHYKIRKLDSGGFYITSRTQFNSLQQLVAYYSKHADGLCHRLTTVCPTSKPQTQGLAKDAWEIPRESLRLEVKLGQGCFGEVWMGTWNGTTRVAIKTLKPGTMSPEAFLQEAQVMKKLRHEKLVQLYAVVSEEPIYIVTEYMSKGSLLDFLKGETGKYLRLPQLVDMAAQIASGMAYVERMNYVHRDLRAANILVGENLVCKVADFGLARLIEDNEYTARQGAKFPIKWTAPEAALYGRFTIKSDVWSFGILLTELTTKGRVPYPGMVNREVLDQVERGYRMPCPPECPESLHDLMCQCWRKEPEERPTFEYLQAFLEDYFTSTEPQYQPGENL
smiles,measurement,value
Cc1nc(-c2cccs2)sc1-c1ccnc(Nc2ccc(S(N)(=O)=O)cc2)n1 [IIc-22],Ki,< 100 nM
